# Measured values published in patent publication US4511390A, “Aralkylcarbamoyl peptide alcohols” (E. I. Du Pont de Nemours and Company, priority 1983, dated 1985).
# “And” between values parts separate entries of the source, which are not always exact repeats. Equal entries are not always repeated.
# Experiments:
# [1] = system: corn root sections; assay: Nitrate ion uptake by corn root sections (nitrate ion specific electrode); type: cell-based, Corn (Pioneer Hybrid 3320); conditions: for Ion Uptake (percent increase over control) NO3-: 50 ppm test compound, corn root sections
# Protocol: (§1) Corn (Pioneer Hybrid 3320), wheat (Arther), sorghum (SC-599-6), barley (CM-721), rice (m101), and cotton (Tamcot SP-37) seeds were disinfected with a 1% sodium hypochlorite solution and placed in 20.3 cm×30.5 cm×5.1 cm Pyrex glass utility trays which were lined with 4 layers of bleached paper towels and irrigated with 150 mL of 0.2 mM CaCl2 solution. The trays were covered with plastic food wrap, perforated to permit air exchange, and placed in a dark growth room which was maintained at 30° and 90% relative humidity. About 48 hours later, another 150 mL of 0.2 mM CaCl2 solution was added to each tray to maintain water sauration of the paper towels.
# (§2) Two centimeter root sections were cut 0.5 to 2.5 cm from the tip of 3-day-old etiolated seedling roots. Batches of 20 (for corn and cotton), or 40 (for wheat, barley and rice) root sections were tied in cheesecloth bags, leaving a 20-30 cm length of string to facilitate movement between test solutions. Root tissue was washed at 30±1° by immersing the cheesecloth bags in a well-aerated 0.2 mM K2 HPO4 /KH2 PO4 solution, pH 6.0, for 4 hours. During the last 30 minutes of this washing period, 1 mM potassium nitrate solution was introduced to induce nitrate reductase activity. For uniformity, 100 mL washing solution was used for every bag of root sections (about 300 mg fresh tissue).
# (§3) Nitrate ion uptake into corn roots was also determined by homogenizing root segments previously exposed to the nitrate absorption solution (without added ^36 ClO3⊖) with a precooled glass homogenizer in 5 mL of cold extraction medium. This medium contained 23 mM phosphate buffer pH 8.8, 5 mM cysteine, 2.5 mM EDTA, and 0.1% Neutronyx 600 (Onyx Chemical Co., Jersey City, N.J.). The resulting homogenate was centrifuged at 30,000 xg for 15 minutes, and an aliquot of the resulting supernatant solution reserved for nitrate ion determination, using an Orion nitrate ion specific electrode. The same tissue extract was used for nitrate reductase activity determination (below).
# (§4) Test compounds are identified in Table I by Example number, and by the identity of substituents X, Y, Z and R in the following formula: [drawing 23]
# [2] = system: corn root sections; assay: Nitrate ion uptake by corn root sections measured with radioactive chlorate ion (36ClO3-) as mimic; type: cell-based, Corn (Pioneer Hybrid 3320); conditions: 50 ppm test compound; for activation at 50 ppm: Zea mays, read-out: Ion Uptake (percent increase over control) 36ClO3-
# Protocol: as §1, §2
# Nitrate ion uptake was measured using radioactive chlorate ion (^36 ClO3⊖) as a mimic for nitrate ion (Deane-Drummond et al., Plant Physiol. 70:50-54 (1982)). Uptake was measured by incubating 20 or 40 cheesecloth-bound washed root segments for 30 minutes in 100 mL absorption solution. The absorption solution contained 0.5 mM potassium nitrate, 0.2 mM calcium chloride, 5 mM MES buffer, and 5 mg/L sodium molybdate. This solution was adjusted to pH 6 with potassium hydroxide, and labeled with 10,000 cpm/ml of carrier-free radioactive chlorate ion. Absorption temperatures was maintained at 30±1° in a water bath, and moderate aeration was provided. All test compounds were added to the absorption solution. After the absorption period, the cheesecloth bag containing root sections was rinsed with distilled water for 10 seconds and then immersed in 100 mL of ice-cold, aerated 0.2 mM calcium chloride solution for 20 minutes to remove exchangeable components of absorbed ^36 ClO3⊖. Root sections were then removed from the cheesecloth bags, blotted dry, placed in a preweighed scintillation vial, and weighed to determine fresh tissue weight. One mL water and 10 mL Scinti Verse I (Fisher Scientific Co.) scintillation fluid were added, and radioactivity determined by scintillation counting. The rate of nitrate (^36 ClO3⊖) uptake in micromols per gram fresh weight of tissue per hour was calculated.
# as §4
# [3] = system: rice root sections; assay: Nitrate ion uptake by plant root sections, rice; type: cell-based, rice (m101)
# Protocol: as §1
# (§5) Two centimeter root sections were cut 0.5 to 2.5 cm from the tip of 3-day-old etiolated seedling roots. […]
# (§6) Nitrate ion uptake was measured using radioactive chlorate ion (^36 ClO3⊖) as a mimic for nitrate ion (Deane-Drummond et al., Plant Physiol. 70:50-54 (1982)). Uptake was measured by incubating 20 or 40 cheesecloth-bound washed root segments for 30 minutes in 100 mL absorption solution. […] One mL water and 10 mL Scinti Verse I (Fisher Scientific Co.) scintillation fluid were added, and radioactivity determined by scintillation counting. The rate of nitrate (^36 ClO3⊖) uptake in micromols per gram fresh weight of tissue per hour was calculated.
# [4] = system: sorghum root sections; assay: Nitrate ion uptake by plant root sections, sorghum; type: cell-based, sorghum (SC-599-6)
# Protocol: as §1, §5, §6
# [5] = system: corn plants; assay: Field test, grain yield of nitrogen-stressed corn; type: in vivo, corn (Pioneer Hybrid 3535)
# Protocol: Field tests were conducted by seeding corn (Pioneer Hybrid 3535) at a rate sufficient to obtain an excess plant population. The resulting population was thinned after emergence, 14 days after planting, to a density of about 64,000 plants per hectare, with plants about 20 cm apart in each row. The test population was subjected to severe nitrogen stress during development because only 67 kg nitrogen/hectare (60 lb/acre) were applied at planting. Nitrogen stress symptoms were apparent on lower plant leaves 32 days after emergence. Test compounds were applied to plants 34 days after emergence and 26 days prior to anthesis. Average canopy height at time of treatment was 85 cm. The treatments were applied from an acetone/water (1:3) solution with 0.2% added nonionic surfactant, using a hand-held nitrogen-pressurized sprayer. One day following treatment, an application of about 34 kg/ha (30 lb/acre) ammonium nitrate was broadcast on the ground and immediately worked into the root zone by irrigation.
# [6] = system: wheat root sections; assay: Nitrate ion uptake by plant root sections, wheat; type: cell-based, wheat (Arther)
# Protocol: as §1, §5, §6
# [7] = system: barley root sections; assay: Nitrate ion uptake by plant root sections, barley; type: cell-based, barley (CM-721)
# Protocol: as §1, §5, §6
# [8] = system: NO3 Reductase; assay: Nitrate reductase activity in extracts of treated corn root sections; type: cell-based, Corn (Pioneer Hybrid 3320); conditions: 50 ppm test compound
# Protocol: as §1, §2
# as §3, with “The same tissue extract was used for nitrate reductase activity determination (below).” left out
# Nitrate reductase activity was determined using a modification of the procedure of Hageman and Huckles- by, Methods Enzymol. […]
# [9] = system: cotton root sections; assay: Nitrate ion uptake by plant root sections, cotton; type: cell-based, cotton (Tamcot SP-37)
# Protocol: as §1, §5, §6
# [10] = system: corn root sections; assay: Ammonium ion uptake by corn root sections (ammonium ion-specific electrode); type: cell-based, Corn (Pioneer Hybrid 3320); conditions: 50 ppm test compound
# Protocol: as §1
# Two centimeter root sections were cut 0.5 to 2.5 cm from the tip of 3-day-old etiolated seedling roots. Batches of 20 (for corn and cotton), or 40 (for wheat, barley and rice) root sections were tied in cheesecloth bags, leaving a 20-30 cm length of string to facilitate movement between test solutions. Root tissue was washed at 30±1° by immersing the cheesecloth bags in a well-aerated 0.2 mM K2 HPO4 /KH2 PO4 solution, pH 6.0, for 4 hours. […]
# Ammonium ion uptake was determined by measuring the disappearance of ammonium ion from an uptake solution containing 1 mmol ammonium chloride, 0.2 mM calcium chloride and 5 mM MES buffer, pH 6.0, with an Orion ammonium ion-specific electrode. […]
# [11] = system: corn plants; assay: Greenhouse test, growth of nitrate-deficient corn plants; type: in vivo; conditions: spray containing 50 ppm; 2-week old corn plants deficient in nitrate ion
# Protocol: Greenhouse tests were conducted by germinating corn seeds in a 25.4 cm pot containing a commercial potting soil mixture. After two weeks, seedlings were culled, leaving two plants in each pot. Distilled water was applied to maintain moisture levels and to leach carry-over nutrients from the potting soil mixtures. The remaining corn plants were randomized and divided into several groups for testing. Each test plant received a single 10 ml application of a test compound at 50 ppm, which was applied from a hand-held air-pressurized sprayer while the plant was rotated on a turntable in a spray hood. Each test compound was dissolved in a solution containing 50% (by volume) water and 50% AGWT diluent. AGWT diluent contains acetone, glycerol, water and polyoxyethylene sorbitan monolaurate in a volumetric ratio of 459:20:500:1. 250 mL of a complete, nitrate ion-free, potassium ion-free, and phosphate ion-free Hoagland nutrient solution were added to each pot twice weekly. This nutrient solution was supplemented with distilled water to maintain proper soil moisture. […] Plants were allowed to grow to maturity and yields were measured at the conclusion of each test.
# [12] = pKa; type: physicochemical; conditions: two values given
compound,measurement,setting,value
"CC[C@H](CO)NC(=O)[C@@H]1CCCN1C(=O)OCc1ccccc1 [Example 7, N-Carbobenzoxy-L-prolyl-D-homoalaninol]",Ion Uptake (percent increase over control) NO3-,[1],41%
same,activation at 50 ppm,[2],40%
"CC(C)[C@@H](CO)NC(=O)[C@@H]1CCCN1C(=O)OCc1ccc(Cl)cc1 [Example 16, N-(p-Chlorobenzyloxycarbonyl) -L-prolyl-L-valinol]",activation at 50 ppm,[2],14%
"CC(C)[C@@H](CO)NC(=O)[C@@H]1CCCN1C(=O)OCc1ccccc1 [Example 2, N-Carbobenzoxy-L-prolyl-L-valinol]",Ion Uptake (percent increase over control) NO3-,[1],65%
same,Nitrate Ion Uptake (percent increase over control),"[1]; Corn root sections, 50 ppm",65%
same,"Nitrate ion uptake enhancement, in words",[1]; corn,Significant stimulation
same,Optimal media concentration for stimulation of nitrate ion uptake,"[1]; immersed corn root sections, varying test concentrations",about 50 ppm
same,Nitrate Ion Uptake (percent increase over control),"[3]; Rice root sections, 50 ppm",10%
same,"Nitrate ion uptake enhancement, in words",[3]; rice root tissues,insensitive
same,Nitrate Ion Uptake (percent increase over control),"[4]; Sorghum root sections, 50 ppm",-5%
same,"Nitrate ion uptake enhancement, in words",[4]; sorghum root tissues,insensitive
same,activation at 50 ppm,[2],56%
same,Grain yield (average),"[5]; second round of field tests, 0.035, 0.07 and 0.14 kg/ha, controls average 321",348 bushels/ha
same,Increase in grain yield,"[5]; second round of field tests, application rates 0.035, 0.07 and 0.14 kg/ha, all three",8-10%
same,Grain yield,"[5]; sprayed with 500 ppm (0.14 kg/ha), field grown corn, control 232",248 bushels/ha
same,Increase in grain yield,"[5]; sprayed with 500 ppm (0.14 kg/ha), field grown corn, p=0.05, vs. control",6.3%
same,Nitrate Ion Uptake (percent increase over control),"[6]; Wheat root sections, 50 ppm",55%
same,"Nitrate ion uptake enhancement, in words",[6]; wheat,Significant stimulation
same,Nitrate Ion Uptake (percent increase over control),"[7]; Barley root sections, 50 ppm",75%
same,"Nitrate ion uptake enhancement, in words",[7]; barley,Significant stimulation
same,NO3- Reductase (percent increase over control),[8],7%
same,Nitrate Ion Uptake (percent increase over control),"[9]; Cotton root sections, 50 ppm",-10%
same,"Nitrate ion uptake enhancement, in words",[9]; cotton root tissues,insensitive
same,Ion Uptake (percent increase over control) NH4+,[10],100%
"CC(C)[C@@H](CO)NC(=O)[C@@H]1CCCN1C(=O)OCc1ccc(F)cc1 [Example 15, N-(4-Fluorobenzyloxycarbonyl)-L-prolyl-L-valinol]",Ion Uptake (percent increase over control) NO3-,[1],30%
same,activation at 50 ppm,[2],35%
"CC(C)[C@@H](CO)NC(=O)[C@@H]1COCN1C(=O)OCc1ccccc1 [Example 12, N-Carbobenzoxy-L-γ-oxaprolyl-L-valinol]",Ion Uptake (percent increase over control) 36ClO3-,[2],18%
"Cc1ccc(COC(=O)N2CCC[C@H]2C(=O)N[C@H](CO)C(C)C)cc1 [Example 17, N-(p-Methylbenzyloxycarbonyl) -L-prolyl-L-valinol]",Ion Uptake (percent increase over control) NO3-,[1],39%
same,activation at 50 ppm,[2],35%
"O=C(NCCO)[C@@H]1CCCN1C(=O)OCc1ccccc1 [Example 4, N-Carbobenzoxy-L-prolyl-(β-hydroxyethyl)amide]",Ion Uptake (percent increase over control) NO3-,[1],30%
same,Ion Uptake (percent increase over control) 36ClO3-,[2],24%
same,NO3- Reductase (percent increase over control),[8],4%
"CC(C)[C@H](CO)NC(=O)[C@H]1CCCN1C(=O)OCc1ccccc1 [Example 10, N-Carbobenzoxy-D-prolyl-D-valinol]",Ion Uptake (percent increase over control) NO3-,[1],36%
same,activation at 50 ppm,[2],41%
"C[C@@H](CO)NC(=O)[C@@H]1CCCN1C(=O)OCc1ccccc1 [Example 5, N-Carbobenzoxy-L-prolyl-L-alaninol]",activation at 50 ppm,[2],20%
"CC(C)C[C@@H](CO)NC(=O)[C@@H]1CCCN1C(=O)OCc1ccccc1 [Example 1, N-Carbobenzoxy-L-prolyl-L-leucinol]",Ion Uptake (percent increase over control) NO3-,[1],40%
same,Growth of corn plants,[11],stimulated growth
same,activation at 50 ppm,[2],26%
same,NO3- Reductase (percent increase over control),[8],-1%
same,Ion Uptake (percent increase over control) NH4+,[10],80%
"CC[C@@H](CO)NC(=O)[C@@H]1CCCN1C(=O)OCc1ccccc1 [Example 6, N-Carbobenzoxy-L-prolyl-L-homoalaninol]",Ion Uptake (percent increase over control) NO3-,[1],24%
same,activation at 50 ppm,[2],20%
"CC(C)[C@@H](CO)NC(=O)[C@@H]1[C@@H](C)OCN1C(=O)OCc1ccccc1 [Example 13, N-Carbobenzoxy-5R-methyloxazolidine-4S-carbonyl-L-valinol]",Ion Uptake (percent increase over control) 36ClO3-,[2],20%
C[C@H]1OCN(C(=O)OCc2ccccc2)[C@@H]1C(=O)O [3-carbobenzoxy-5R-methyloxazolidine-4S-carboxylic acid],pKa,[12],4.65 and 4.60
O=C(O)[C@@H]1COCN1C(=O)OCc1ccccc1 [3-Carbobenzoxyoxazolidine-4S-carboxylic acid],pKa,[12],4.35 and 4.30
"CC(C)[C@H](CO)NC(=O)[C@@H]1CCCN1C(=O)OCc1ccccc1 [Example 8, N-Carbobenzoxy-L-prolyl-D-Valinol]",activation at 50 ppm,[2],12%
"CC(C)[C@@H](CO)NC(=O)[C@H]1CCCN1C(=O)OCc1ccccc1 [Example 9, N-Carbobenzoxy-D-prolyl-L-valinol]",activation at 50 ppm,[2],37%
O=C(O)[C@H]1COCN1C(=O)OCc1ccccc1 [3-Carbobenzoxy oxazolidine-4R-carboxylic acid],pKa,[12],3.80 and 3.90
